ChEMBL document CHEMBL3525947, “Potential role of UGT1A4 promoter SNPs in anastrozole pharmacogenomics” (Drug Metab Dispos, 2013)
One block for each compound: values may come before it.

Assays:
Format in all cases: ADME
Liver microsome [1] = test: Drug metabolism human liver microsomes treated with 100 uM lamotrigine assessed as retention time by mass spectrometry analysis
[2] = Drug metabolism in human liver microsomes assessed as UGT1A4 70C>A (AA) mutant-mediated compound glucuronidation at 100 uM by mass spectrometry analysis
[3] = Drug metabolism in human liver microsomes assessed as UGT1A4 -36G>A (GG) mutant-mediated compound glucuronidation at 100 uM by mass spectrometry analysis
[4] = Drug metabolism in human liver microsomes assessed as UGT1A4 -219C>T(CC) mutant-mediated compound glucuronidation at 100 uM by mass spectrometry analysis
[5] = Drug metabolism in human liver microsomes assessed as UGT1A4 -163G>A(AG) mutant-mediated compound glucuronidation at 100 uM by mass spectrometry analysis
[6] = Drug metabolism in human liver microsomes assessed as UGT1A4 -36G>A (AG) variant-mediated compound glucuronidation at 100 uM by mass spectrometry analysis
[7] = Drug metabolism in human liver microsomes assessed as UGT1A4 142T>G (GG) mutant-mediated compound glucuronidation at 100 uM by mass spectrometry analysis
[8] = Drug metabolism in human liver microsomes assessed as UGT1A4 -163G>A(GG) variant-mediated compound glucuronidation at 100 uM by mass spectrometry analysis
[9] = Drug metabolism in human liver microsomes assessed as UGT1A4 -217T>G(TT) variant-mediated compound glucuronidation at 100 uM by mass spectrometry analysis
[10] = Drug metabolism in human liver microsomes assessed as UGT1A4 70C>A (CC) mutant-mediated compound glucuronidation at 100 uM by mass spectrometry analysis
[11] = Drug metabolism in human liver microsomes assessed as UGT1A4 -163G>A(AA) variant-mediated compound glucuronidation at 100 uM by mass spectrometry analysis
Liver microsome [12] = test: Drug metabolism in human liver microsomes assessed as glucuronide formation per mg protein by mass spectrometry analysis
[13] = Drug metabolism in human liver microsomes assessed as UGT1A4 -217T>G(GG) mutant-mediated compound glucuronidation at 100 uM by mass spectrometry analysis
[14] = Drug metabolism in human liver microsomes assessed as UGT1A4 70C>A (AC) mutant-mediated compound glucuronidation at 100 uM by mass spectrometry analysis
[15] = Drug metabolism in human liver microsomes assessed as UGT1A4 -36G>A (AA) variant-mediated compound glucuronidation at 100 uM by mass spectrometry analysis
[16] = biological target: T1, UDP-glucuronosyltransferase 1A4 (Homo sapiens, UniProt P22310); test: Drug metabolism assessed as hecogenin-mediated inhibition of human recombinant UGT1A4-catalyzed anastrozole glucuronidation after 90 mins
T1 sequence (P22310 whole entry): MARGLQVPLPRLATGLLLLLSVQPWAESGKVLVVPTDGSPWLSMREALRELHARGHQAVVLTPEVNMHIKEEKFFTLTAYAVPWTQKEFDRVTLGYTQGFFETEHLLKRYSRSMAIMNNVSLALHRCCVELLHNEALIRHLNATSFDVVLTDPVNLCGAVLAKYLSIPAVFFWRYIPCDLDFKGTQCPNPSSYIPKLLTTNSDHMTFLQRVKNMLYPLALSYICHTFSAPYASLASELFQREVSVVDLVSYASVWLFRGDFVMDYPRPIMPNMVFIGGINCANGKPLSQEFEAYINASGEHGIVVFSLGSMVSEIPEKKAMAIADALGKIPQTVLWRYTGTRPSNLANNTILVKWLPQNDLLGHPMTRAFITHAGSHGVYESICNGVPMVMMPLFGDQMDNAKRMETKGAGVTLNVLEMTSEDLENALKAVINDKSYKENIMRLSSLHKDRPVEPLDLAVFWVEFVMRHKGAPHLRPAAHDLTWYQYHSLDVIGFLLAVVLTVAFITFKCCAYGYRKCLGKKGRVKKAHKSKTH

[17] = Drug metabolism in human liver microsomes assessed as UGT1A4 -219C>T(TT) mutant-mediated compound glucuronidation at 100 uM by mass spectrometry analysis
[18] = Drug metabolism in human liver microsomes assessed as UGT1A4 -217T>G(TG) variant-mediated compound glucuronidation at 100 uM by mass spectrometry analysis
Liver microsome [19] = test: Drug metabolism in pooled human liver microsomes assessed as IC50 for hecogenin-mediated inhibition of anastrozole glucuronidation after 90 mins; conditions: 1.5 h
[20] = Drug metabolism in human liver microsomes assessed as UGT1A4 142T>G (TT) mutant-mediated compound glucuronidation at 100 uM by mass spectrometry analysis
[21] = Drug metabolism in human liver microsomes assessed as UGT1A4 -219C>T(CT) mutant-mediated compound glucuronidation at 100 uM by mass spectrometry analysis
Liver microsome [22] = test: Drug metabolism in human liver microsomes assessed as retention time at 100 uM by mass spectrometry analysis
[23] = Drug metabolism in human liver microsomes assessed as UGT1A4 142T>G (TG) mutant-mediated compound glucuronidation at 100 uM by mass spectrometry analysis
Liver microsome [24] = test: Drug metabolism human liver microsomes treated with 100 uM anastrozole assessed as retention time by mass spectrometry analysis

Retention_time (Liver microsome [1]): 1.34 min
Compound: Nc1nc(N)[n+]([C@@H]2O[C@H](C(=O)[O-])[C@@H](O)[C@H](O)[C@H]2O)nc1-c1cccc(Cl)c1Cl

Drug metabolism [2]: 0.8 pmol/min/µg
Drug metabolism [3]: 0.3 pmol/min/µg
Drug metabolism [4]: 0.4 pmol/min/µg
Drug metabolism [5]: 0.7 pmol/min/µg
Drug metabolism [6]: 1 pmol/min/µg
Drug metabolism [7]: 0.3 pmol/min/µg
Drug metabolism [8]: 0.4 pmol/min/µg
Drug metabolism [9]: 0.3 pmol/min/µg
Drug metabolism [10]: 0.4 pmol/min/µg
Drug metabolism [11]: 0.8 pmol/min/µg
Drug metabolism (Liver microsome [12]): 0.023 pmol/min
Drug metabolism [13]: 1.9 pmol/min/µg
Drug metabolism [14]: 0.3 pmol/min/µg
Drug metabolism [15]: 1.3 pmol/min/µg
IC50 [16]: 4.72 µM
Drug metabolism [17]: 1 pmol/min/µg
Drug metabolism [18]: 1.5 pmol/min/µg
IC50 (Liver microsome [19]): 15 µM
Drug metabolism [20]: 0.5 pmol/min/µg
Drug metabolism [21]: 0.9 pmol/min/µg
Retention_time (Liver microsome [22]): 3.95 min
Drug metabolism [23]: 0.3 pmol/min/µg
Compound: CC(C)(C#N)c1cc(Cn2cncn2)cc(C(C)(C)C#N)c1 [ANASTROZOLE]

Drug metabolism (Liver microsome [12]): metabolite_detected
Retention_time (Liver microsome [22]): 1.63 min
Compound: Nc1nnc(-c2cccc(Cl)c2Cl)c(N)n1 [LAMOTRIGINE]

Retention_time (Liver microsome [24]): 2.86 min
Compound: CC(C)(C#N)c1cc(Cn2c[n+]([C@@H]3O[C@H](C(=O)[O-])[C@@H](O)[C@H](O)[C@H]3O)cn2)cc(C(C)(C)C#N)c1
